Like-named read-outs stand apart in the source and are kept apart here.

For test [1], the system named is skin. The following applies: 100-300 mg given orally, cited from earlier work.
In test [2] the test system is skin. Briefly: Topical niacin skin patch test, redness (flushing) scored 0-3. It is filed as in vivo, human. The following applies: for Percentage responding with absent [0] reddening of the skin / Percentage responding with marked [3] reddening of the skin / Percentage responding with mild [1] reddening of the skin / Percentage responding with moderate [2] reddening of the skin: 5 minutes. From the text: The test involves the topical application of niacin solutions, preferably in a carrier such as gauze, cotton, wax or appropriate fibre or absorbent material, to the skin of any part of the body, but conveniently the forearm or upper arm. A range of solutions may be used from 0.00001M to 1 molar. A single concentration may be chosen and used but desirably use is made of a range of steps varying from two to twenty. We have found it convenient is to use a range of four solutions of 0.1, 0.01, 0.001 and 0.0001M, e.g. 0.05 ml of each, but other concentrations within the range and other numbers of steps can be used as found appropriate, both in diagnosis and in monitoring as discussed above. […] The wells or depressions may be sealed by another plastic or other strip which isolates them from the atmosphere and which can be removed immediately prior to testing. The strip with the open wells can then be applied to the skin surface with light pressure and removed after an appropriate time which may be e.g. 0.5 minutes up to 10 or 15 minutes but preferably 3 to 6 minutes.
Both of these effects are due to vasodilatation of the small blood vessels of the skin. The redness may be scored in relation to the adjacent unaffected skin on an appropriate scale which can be either “present” or “absent”, or can be semi-quantitative, such as mild, moderate or marked, or can be made fully quantitative by use of a spectrophotometer or other appropriate instrument e.g. a blood flow meter. The oedema can likewise be scored as present or absent or can be scored semi-quantitatively or quantitatively.
We have also used a scoring system in which the degree of redness under each patch was scored as 0=no change, 1=mild redness, 2=moderate redness and 3=marked redness. When the test is used commercially, sample colour charts may show how the test can be used with individuals of varying skin colour. With particularly dark-skinned individuals, oedema or a measurement of skin surface temperature or heat loss may be required to give the best results.

The mark [3] stands for this setting: normal controls (n=22), topical niacin 0.000. M.
Setting [4] is: normal controls (n=22), topical niacin 0.001 M.
Where [5] appears, read: normal controls (n=22), topical niacin 0.01 M.
The mark [6] stands for this setting: normal controls (n=22), topical niacin 0.1 M.
[7] abbreviates: schizophrenics (n=38), topical niacin 0.000. M.
Setting [8] is: schizophrenics (n=38), topical niacin 0.001 M.
Where [9] appears, read: schizophrenics (n=38), topical niacin 0.01 M.
[10] abbreviates: schizophrenics (n=38), topical niacin 0.1 M.

Regarding `O=C(O)c1cccnc1` [Niacin, nicotinic acid], the entries for the “Flushing response to oral niacin” value in test [1] (a substantial proportion of schizophrenics) and in test [1] (most normal individuals) were “fail to flush” and “flush markedly”, respectively. The “Response to topical niacin test in depressives” value in test [2] (depressives, expected by analogy with oral niacin) was “the same as for normal individuals”. Also, the “Percentage responding with absent [0] reddening of the skin” value was found to be 35.3% in test [2] (setting [3]); 31.8% in test [2] (setting [4]); 9.1% in test [2] (setting [5]); 4.5% in test [2] (setting [6]); 88.2% in test [2] (setting [7]); 67.6% in test [2] (setting [8]). In addition, the results for the “Percentage responding with absent [0] reddening of the skin” value in test [2] (setting [9]) and in test [2] (setting [10]) were 41.2% and 13.5%, respectively. Further, the “Percentage responding with marked [3] reddening of the skin” value came out at 17.6% in test [2] (setting [3]); 18.2% in test [2] (setting [4]); 31.8% in test [2] (setting [5]); 59.1% in test [2] (setting [6]); 0% in test [2] (setting [7]); 0% in test [2] (setting [8]). The “Percentage responding with marked [3] reddening of the skin” value in test [2] (setting [9]) is 0%; in test [2] (setting [10]), 5.4%. In addition, the “Percentage responding with mild [1] reddening of the skin” value in test [2] (setting [3]) is 29.4%; in test [2] (setting [4]) it was 9.1%; in test [2] (setting [5]), 13.6%; in test [2] (setting [6]), 9.1%; in test [2] (setting [7]), 8.8%; in test [2] (setting [8]) it was 29.4%. Moreover, the entries for the “Percentage responding with mild [1] reddening of the skin” value in test [2] (setting [9]) and in test [2] (setting [10]) were 41.2% and 37.8%, respectively. For the same compound, the “Percentage responding with moderate [2] reddening of the skin” value in test [2] (setting [3]) is given as 17.6%; in test [2] (setting [4]) it was 40.9%; in test [2] (setting [5]) it was 45.5%; in test [2] (setting [6]), 27.3%; in test [2] (setting [7]), 2.9%; in test [2] (setting [8]) it was 2.9%. Also, the “Percentage responding with moderate [2] reddening of the skin” value in test [2] (setting [9]) was 17.6%; in test [2] (setting [10]) it was 43.2%.

Turning to `NC(=O)c1cccnc1` [Nicotinamide], in test [2] (form passing the skin, suitability for the topical test), the “Flushing reaction in normal individuals” value is recorded as “does not elicit the reaction”.

These data come from patent publication US20040071762A1, “Diagnostic test for schizophrenia, using niacin” (Scotia Holdings PLC, priority 1996, published 2004).
